Tests used:
Assay in all cases: standardised AUC of viability dose-response curve (72 h) (fraction (0-1)); higher = less growth inhibition (more resistant)
SW872 = test system: SW872
Summary of the method: (§1)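 After 72 h with 2.5 µl of compound (compound-plate series 10 mM to 0.0002 mM), triplicate wells of sarcoma cell lines in 384-well plates were read with ATPLite, with viability scaled 1 (full) to 0 (none) and fitted with a four-parameter log-logistic model. The values give the standardised area under the dose-response curve in log-dose space from a modified drexplorer computeAUC. A value of 1 means no response and 0 means full response.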

HT1080 = test system: HT1080
Summary of the method: as §1

RD-ES = test system: RD-ES
Summary of the method: as §1

SK-ES-1 = test system: SK-ES-1
Summary of the method: as §1

KHOS-NP = test system: KHOS-NP
Summary of the method: as §1

SW1353 = test system: SW1353
Summary of the method: as §1

SW982 = test system: SW982
Summary of the method: as §1

A204 = test system: A204
Summary of the method: as §1

KHOS-240S = test system: KHOS-240S
Summary of the method: as §1

MES-SA = test system: MES-SA
Summary of the method: as §1

SK-LMS-1 = test system: SK-LMS-1
Summary of the method: as §1

SYO-1 = test system: SYO-1
Summary of the method: as §1

G401 = test system: G401
Summary of the method: as §1

VA-ES-BJ = test system: VA-ES-BJ
Summary of the method: as §1

SW684 = test system: SW684
Summary of the method: as §1

RD = test system: RD
Summary of the method: as §1

HS729 = test system: HS729
Summary of the method: as §1

Row | SMILES | standardised AUC (SW872) | standardised AUC (HT1080) | standardised AUC (RD-ES) | standardised AUC (SK-ES-1) | standardised AUC (KHOS-NP) | standardised AUC (SW1353) | standardised AUC (SW982) | standardised AUC (A204) | standardised AUC (KHOS-240S) | standardised AUC (MES-SA) | standardised AUC (SK-LMS-1) | standardised AUC (SYO-1) | standardised AUC (G401) | standardised AUC (VA-ES-BJ) | standardised AUC (SW684) | standardised AUC (RD) | standardised AUC (HS729)
1 | CC(C)NC[C@@H](C(=O)N1CCN(c2ncnc3c2[C@H](C)C[C@H]3O)CC1)c1ccc(Cl)cc1 [IPATASERTIB] | 0.805 | 0.969 | 0.848 | 0.851 | 0.954 | 0.891 | 0.916 | 0.843 | 0.921 | 0.781 | 0.885 | 0.791 | 0.836 | 0.769 | 0.848 | 0.898 | 0.817
2 | CN1CC[C@@H](NC(=O)Nc2ccc(C#N)cc2)C[C@@H]1c1nc2ccccc2[nH]1 [GLASDEGIB] | 0.988 | 0.988 | 0.959 | 0.953 | 0.992 | 0.988 | 0.991 | 0.982 | 0.991 | 0.976 | 0.982 | 0.976 | 0.976 | 0.984 | 0.99 | 0.987 | 0.985
3 | Cc1[nH]c(/C=C2\C(=O)Nc3ccc(F)cc32)c(C)c1C(=O)NCCN1CCCC1 [TOCERANIB] | 0.864 | 0.908 | 0.778 | 0.795 | 0.931 | 0.926 | 0.833 | 0.669 | 0.841 | 0.82 | 0.891 | 0.632 | 0.923 | 0.918 | 0.937 | 0.957 | 0.739
4 | Clc1ccc(Nc2nnc(Cc3ccncc3)c3ccccc23)cc1 [VATALANIB] | 0.994 | 1 | 0.99 | 0.998 | 1 | 0.979 | 0.997 | 0.864 | 0.978 | 0.998 | 0.975 | 0.937 | 0.971 | 1 | 0.988 | 0.995 | 0.989
5 | O=C1NC(=O)[C@@H](c2cn3c4c(cccc24)CCC3)[C@@H]1c1c[nH]c2ccccc12 [TIVANTINIB] | 0.859 | 0.796 | 0.768 | 0.718 | 0.867 | 0.879 | 0.792 | 0.844 | 0.782 | 0.754 | 0.79 | 0.804 | 0.865 | 0.829 | 0.883 | 0.789 | 0.896
6 | COc1cc(OC)c(/C=C/S(=O)(=O)Cc2ccc(OC)c(NCC(=O)O)c2)c(OC)c1 [RIGOSERTIB] | 0.854 | 0.707 | 0.644 | 0.584 | 0.805 | 0.822 | 0.748 | 0.779 | 0.636 | 0.681 | 0.719 | 0.827 | 0.852 | 0.755 | 0.851 | 0.712 | 0.882
7 | N#CC1(c2ccc(NC(=O)c3cccnc3NCc3ccncc3)cc2)CCCC1 [APATINIB] | 0.98 | 0.991 | 0.98 | 0.988 | 0.968 | 0.965 | 0.998 | 0.821 | 0.966 | 0.972 | 0.982 | 0.893 | 0.956 | 1 | 0.987 | 0.996 | 0.942
8 | C[C@H](Nc1ncnc2nc[nH]c12)c1cc2cccc(Cl)c2c(=O)n1-c1ccccc1 [DUVELISIB] | 0.869 | 0.996 | 0.915 | 0.917 | 0.985 | 0.879 | 0.915 | 0.864 | 0.946 | 0.901 | 0.834 | 0.921 | 0.912 | 0.884 | 0.666 | 0.941 | 0.902
9 | Cc1cccc(-c2nn3c(c2-c2ccnc4ccc(C(N)=O)cc24)CCC3)n1 [GALUNISERTIB] | 0.962 | 0.982 | 0.972 | 0.968 | 0.956 | 0.976 | 0.992 | 0.976 | 0.955 | 0.969 | 0.974 | 0.853 | 0.993 | 1 | 0.992 | 0.998 | 0.91
10 | O=C(Nc1ccc(OC(F)(F)Cl)cc1)c1cnc(N2CC[C@@H](O)C2)c(-c2cc[nH]n2)c1 [ASCIMINIB] | 0.997 | 0.969 | 0.965 | 0.979 | 0.962 | 1 | 0.987 | 0.947 | 0.983 | 0.975 | 0.957 | 0.94 | 0.989 | 0.996 | 0.987 | 0.994 | 0.985
11 | N#CCNC(=O)c1ccc(-c2ccnc(Nc3ccc(N4CCOCC4)cc3)n2)cc1 [MOMELOTINIB] | 0.898 | 1 | 0.944 | 0.815 | 0.979 | 0.893 | 0.861 | 0.829 | 0.91 | 0.863 | 0.941 | 0.839 | 0.889 | 0.964 | 0.907 | 0.994 | 0.922
12 | Cn1ncnc1[C@H]1c2n[nH]c(=O)c3cc(F)cc(c23)N[C@@H]1c1ccc(F)cc1 [TALAZOPARIB] | 0.826 | 0.83 | 0.433 | 0.376 | 0.919 | 0.836 | 0.749 | 0.79 | 0.86 | 0.675 | 0.905 | 0.48 | 0.817 | 0.725 | 0.956 | 0.832 | 0.936
13 | CCc1cnn2c(NCc3ccc[n+]([O-])c3)cc(N3CCCC[C@H]3CCO)nc12 [DINACICLIB] | 0.6 | 0.525 | 0.419 | 0.378 | 0.509 | 0.551 | 0.546 | 0.497 | 0.51 | 0.398 | 0.598 | 0.519 | 0.439 | 0.498 | 0.798 | 0.484 | 0.64
14 | CC[C@@H]1CN(C(=O)NCC(F)(F)F)C[C@@H]1c1cnc2cnc3[nH]ccc3n12 [UPADACITINIB] | 0.951 | 0.976 | 0.994 | 0.988 | 0.975 | 0.945 | 0.979 | 0.97 | 0.956 | 0.977 | 0.974 | 0.913 | 0.961 | 0.962 | 0.984 | 0.993 | 0.915

— the supplement of paper PMC10883282
